Laboratory results published in patent US20050130252A1, “Stabilized susceptibility tests of aerobic pathogens” (Wyeth Holdings Corporation, priority 2003, published 2005).
Converted amounts (≈) assume the structure as drawn. Like-named read-outs stand apart in the source and are kept apart here.

System: E. coli ATCC 25922
Assay: Broth microdilution MIC
Type: cell-based, Escherichia coli
Conditions: Escherichia coli
Procedure: The process for preparing susceptibility test medium are the following steps: • a. Preparing Mueller Hinton Broth II medium by adding 22 grams powdered media to 1.0 liter distilled water; • b. Autoclaving (121° C., 15 psi, 15 minutes) and cooling the medium; • c. Adding Oxyrase® up to about 10% final volume and keeping at 35-37° C. in an incubator for 30 minutes; • d. Adding about 50 μL to each well of a 96 well microtiter plate; • e. Weighing drug and adding broth to drug to bring up to about (standard 128 μg/ml); • f. Adding 50 μL of the drug to the first column of the titer plate; • g. Diluting by two-fold serial diluting across or down the plate. • h. Preparing a Prompt™ inoculum at 10^8 CFU/ml; • i. Diluting inoculum 1:100 in the broth at […] in 9.9 ml (1:100) is 10^6 colony forming units (CFU) forming the adjusted inoculum; • j. Adding 50 μL of the adjusted inoculum to the wells of the microtiter plate; • k. Incubating the plates at 35-37° C. for 18-22 hours; and • l. Reading, with the unaided eye, the MIC.
The in vitro activities of tigecycline and control antibiotics were determined by the broth microdilution method as recommended by the NCCLS. (National Committee for Clinical Laboratory Standards, 2003. Methods for Dilution Antimicrobial Susceptibility Tests for Bacteria That Grow Aerobically; Approved Standards: M7-A6, Sixth ed, vol. 23., National Committee for Clinical Laboratory Standards Wayne, Pa.) was used for the standard procedures. MBH with 5% lysed horse blood was used for testing S. pneumoniae and Haemophilus Test Medium was used for testing H. influenzae. Oxyrase® (Oxyrase Inc, Mansfield, Ohio) was used according to the manufacturer's instructions by adding 1 ml of Oxyrase® to 50 ml of media. Media age studies were performed by preparing MHB in multiple flasks, then storing the media under various conditions. MICs were usually performed in duplicate on each day of testing. Storage under anaerobic conditions was conducted in an anaerobic chamber (MACS MG 1000, Don Whitley Scientific LTD). The pH of the media was determined by pH meter (Corning 430). A comparison of the in vitro activity of tigecycline by agar and broth dilution methodolgies with and without Oxyrase® against clinical isolates is shown in Table 1.

## CN(C)c1cc(NC(=O)CNC(C)(C)C)c(O)c2c1C[C@H]1C[C@H]3[C@H](N(C)C)C(O)=C(C(N)=O)C(=O)[C@@]3(O)C(O)=C1C2=O [Tigecycline, tigecycline]
ATCC25922, 0 h, E. coli ATCC 25922, Day 0, Pre-prepared media, room temperature, N = 6
  MIC: 0.12 µg/mL (≈ 0.205 µM)
ATCC25922, 0 h, E. coli ATCC 25922, Day 0, media Fresh from Powder 2° C., N = 6
  MIC: 0.03 to 0.06 µg/mL (≈ 0.0512 to 0.102 µM)
ATCC25922, 0 h, E. coli ATCC 25922, Day 0, media Fresh from Powder, room temperature, N = 6
  MIC: 0.03 µg/mL (≈ 0.0512 µM)
ATCC25922, 24 h, E. coli ATCC 25922, Day 1, Pre-prepared media, room temperature, N = 6
  MIC: 0.12 to 0.25 µg/mL (≈ 0.205 to 0.427 µM)
ATCC25922, 24 h, E. coli ATCC 25922, Day 1, media Fresh from Powder 2° C., N = 6
  MIC: 0.03 to 0.06 µg/mL (≈ 0.0512 to 0.102 µM)
ATCC25922, 24 h, E. coli ATCC 25922, Day 1, media Fresh from Powder, room temperature, N = 6
  MIC: 0.06 µg/mL (≈ 0.102 µM)
ATCC25922, 168 h, E. coli ATCC 25922, Day 7, Pre-prepared media, room temperature, N = 6
  MIC: 0.12 to 0.25 µg/mL (≈ 0.205 to 0.427 µM)
ATCC25922, 168 h, E. coli ATCC 25922, Day 7, media Fresh from Powder 2° C., N = 6
  MIC: 0.06 µg/mL (≈ 0.102 µM)
ATCC25922, 168 h, E. coli ATCC 25922, Day 7, media Fresh from Powder, room temperature, N = 6
  MIC: 0.12 µg/mL (≈ 0.205 µM)
ATCC25922, 336 h, E. coli ATCC 25922, Day 14, Pre-prepared media, room temperature, N = 6
  MIC: 0.12 to 0.25 µg/mL (≈ 0.205 to 0.427 µM)
ATCC25922, 336 h, E. coli ATCC 25922, Day 14, media Fresh from Powder 2° C., N = 6
  MIC: 0.12 to 0.25 µg/mL (≈ 0.205 to 0.427 µM)
ATCC25922, 336 h, E. coli ATCC 25922, Day 14, media Fresh from Powder, room temperature, N = 6
  MIC: 0.12 to 0.25 µg/mL (≈ 0.205 to 0.427 µM)
ATCC25922, 336 h, read-out: Minimal Inhibitory Concentration, E. coli ATCC 25922, media Aged Aerobic (2 weeks at RT under room air), N = 4
  MIC: 0.12 to 0.25 µg/mL (≈ 0.205 to 0.427 µM)
ATCC25922, 504 h, E. coli ATCC 25922, Day 21, media Fresh from Powder 2° C., N = 6
  MIC: 0.25 µg/mL (≈ 0.427 µM)
ATCC25922, 504 h, E. coli ATCC 25922, Day 21, media Fresh from Powder, room temperature, N = 6
  MIC: 0.12 to 0.25 µg/mL (≈ 0.205 to 0.427 µM)
ATCC25922, 672 h, E. coli ATCC 25922, Day 28, Pre-prepared media, room temperature, N = 6
  MIC: 0.12 to 0.25 µg/mL (≈ 0.205 to 0.427 µM)
ATCC25922, 672 h, E. coli ATCC 25922, Day 28, media Fresh from Powder 2° C., N = 6
  MIC: 0.12 µg/mL (≈ 0.205 µM)
ATCC25922, 672 h, E. coli ATCC 25922, Day 28, media Fresh from Powder, room temperature, N = 6
  MIC: 0.12 to 0.25 µg/mL (≈ 0.205 to 0.427 µM)
ATCC25922, read-out: Minimal Inhibitory Concentration (modal value), E. coli ATCC 25922, Aged Media + Oxyrase, N = 8
  MIC: 0.12 µg/mL
ATCC25922, read-out: Minimal Inhibitory Concentration (modal value), E. coli ATCC 25922, Aged media, N = 8
  MIC: 0.25 µg/mL (≈ 0.427 µM)
ATCC25922, read-out: Minimal Inhibitory Concentration (modal value), E. coli ATCC 25922, Fresh Media + Oxyrase, N = 8
  MIC: 0.12 µg/mL
ATCC25922, read-out: Minimal Inhibitory Concentration (modal value), E. coli ATCC 25922, Freshly Prepared Media, N = 8
  MIC: 0.12 µg/mL (≈ 0.205 µM)
ATCC25922, read-out: Minimal Inhibitory Concentration, E. coli ATCC 25922, 2% Oxyrase
  MIC: 0.03 µg/mL (≈ 0.0512 µM)
ATCC25922, read-out: Minimal Inhibitory Concentration, E. coli ATCC 25922, Aged Media + Oxyrase, N = 8
  MIC: 0.12 to 0.25 µg/mL
ATCC25922, read-out: Minimal Inhibitory Concentration, E. coli ATCC 25922, Aged media, N = 8
  MIC: 0.25 to 0.5 µg/mL (≈ 0.427 to 0.854 µM)
ATCC25922, read-out: Minimal Inhibitory Concentration, E. coli ATCC 25922, Commercially Prepared media, N = 4
  MIC: 0.12 to 0.25 µg/mL (≈ 0.205 to 0.427 µM)
ATCC25922, read-out: Minimal Inhibitory Concentration, E. coli ATCC 25922, Fresh Media + Oxyrase, N = 8
  MIC: 0.06 to 0.12 µg/mL
ATCC25922, read-out: Minimal Inhibitory Concentration, E. coli ATCC 25922, Freshly Prepared Media, N = 8
  MIC: 0.12 to 0.25 µg/mL (≈ 0.205 to 0.427 µM)
ATCC25922, read-out: Minimal Inhibitory Concentration, E. coli ATCC 25922, Freshly Prepared media, N = 4
  MIC: 0.03 µg/mL (≈ 0.0512 µM)
ATCC25922, read-out: Minimal Inhibitory Concentration, E. coli ATCC 25922, MHB II + 0.05% Catalase
  MIC: 0.5 µg/mL
ATCC25922, read-out: Minimal Inhibitory Concentration, E. coli ATCC 25922, MHB II + 0.05% L-ascorbic Acid
  MIC: 2 µg/mL
ATCC25922, read-out: Minimal Inhibitory Concentration, E. coli ATCC 25922, MHB II + 0.05% L-cysteine
  MIC: 0.5 µg/mL
ATCC25922, read-out: Minimal Inhibitory Concentration, E. coli ATCC 25922, MHB II + 0.05% Sodium Pyruvate
  MIC: 0.12 µg/mL
ATCC25922, read-out: Minimal Inhibitory Concentration, E. coli ATCC 25922, MHB II + 0.05% Thioglycolate
  MIC: 0.12 µg/mL
